For 17 molecules, IC50 results are on record in patent publication US11976083B2, “Inhibitors of peptidylarginine deiminases” (Gilead Sciences, Inc., priority 2020, dated 2024).

Usually IC50 stands for the concentration that inhibits the measured activity by half.

The assay concerns the target T1, human PAD4 (Homo sapiens, UniProt Q9UM07).
T1 construct: human PAD4 (NM_012387), A2-P663, was PCR amplified; His-SUMO (N, cleaved yes); made in house; host or cells: E. coli BL21(DE3)
In words: In vitro PAD4 BAEE biochemical assay. The following applies: BAEE substrate 3 mM, 5 nM PAD4, 2 mM calcium chloride; geometric mean of multiple experiments. In short, it runs like this:
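PAD4 5 nM, CaCl2 2 mM, BAEE 3 mM final; 50 mM MOPS pH 7.6, 50 mM NaCl, 0.05% Tween-20, 2 mM DTT. Cpd + enzyme 30 min 25 °C; substrate 2 h 25 °C; EDTA stop; OPA detection 1 h. IC50 4-parameter fit.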

T1 sequence (Q9UM07 2-663): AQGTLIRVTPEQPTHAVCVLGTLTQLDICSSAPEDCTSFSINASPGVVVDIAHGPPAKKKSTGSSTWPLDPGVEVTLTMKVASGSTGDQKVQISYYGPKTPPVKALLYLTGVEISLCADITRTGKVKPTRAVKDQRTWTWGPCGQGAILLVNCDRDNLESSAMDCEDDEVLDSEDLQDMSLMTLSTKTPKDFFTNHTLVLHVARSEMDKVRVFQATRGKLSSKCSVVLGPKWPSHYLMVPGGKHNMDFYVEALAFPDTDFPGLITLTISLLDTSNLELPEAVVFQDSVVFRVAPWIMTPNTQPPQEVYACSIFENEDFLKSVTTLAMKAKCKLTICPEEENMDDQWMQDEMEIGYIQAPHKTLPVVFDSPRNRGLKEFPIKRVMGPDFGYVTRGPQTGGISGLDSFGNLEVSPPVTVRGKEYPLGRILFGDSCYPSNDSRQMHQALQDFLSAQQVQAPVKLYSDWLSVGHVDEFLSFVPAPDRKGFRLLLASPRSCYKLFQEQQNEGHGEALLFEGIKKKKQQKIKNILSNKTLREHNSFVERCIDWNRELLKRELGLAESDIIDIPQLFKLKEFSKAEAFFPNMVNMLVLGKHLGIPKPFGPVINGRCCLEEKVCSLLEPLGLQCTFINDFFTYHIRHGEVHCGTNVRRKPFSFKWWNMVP

In the case of `COc1cc(C(=O)N[C@H]2CNCC[C@@H]2F)cc2nc(-c3cc4ccc5nc4n3CC(F)(F)CCCc3ccccc3C(=O)N[C@@H]5C)n(C)c12` [Example 186, 2-[(2~{R})-14,14-difluoro-2-methyl-4-oxo-3,16,22-triazatetracyclo[14.5.2.0^{5,10}.0^{19,23}]tricosa-1(22),5(10),6,8,17,19(23),20-heptaen-17-yl]-~{N}-[(3~{S},4~{S})-4-fluoro-3-piperidyl]-7-methoxy-1-methyl-benzimidazole-5-carboxamide], the IC50 was determined as 139 nM.

In the case of `COc1cc(C(=O)N2CC[C@H]3CCN[C@H]3C2)cc2nc(-c3cc4ccc5nc4n3CCCCCCC(C)(C)C(=O)N[C@@H]5C)n(C)c12` [Example 79, (11~{R})-17-[5-[(3~{a}~{R},7~{a}~{R})-1,2,3,3~{a},4,5,7,7~{a}-octahydropyrrolo[2,3-c]pyridine-6-carbonyl]-7-methoxy-1-methyl-benzimidazol-2-yl]-8,8,11-trimethyl-1,10,19-triazatricyclo[10.5.2.0^{15,18}]nonadeca-12(19),13,15(18),16-tetraen-9-one], the IC50 worked out at 76 nM.

As to `COc1cc(C(=O)NC2CNCC[C@@H]2F)cc2nc(-c3cc4ccc5nc4n3C[C@H]3C[C@H]3CCC[C@@](C)(C(F)(F)F)C(=O)N[C@@H]5C)n(C)c12` (some centres unmarked) [Example 373, 2-[(3~{S},5~{R},9~{R},12~{R})-9,12-dimethyl-10-oxo-9-(trifluoromethyl)-1,11,20-triazatetracyclo[11.5.2.0^{3,5}.0^{16,19}]icosa-13(20),14,16(19),17-tetraen-18-yl]-~{N}-[(3~{S},4~{S})-4-fluoro-3-piperidyl]-7-methoxy-1-methyl-benzimidazole-5-carboxamide], the IC50 was determined as 254 nM.

Consider `COc1cc(C(=O)N2CC[C@@H](OC)[C@@H](N)C2)cc2nc(-c3cc4ccc5cc4n3CCCCCCC(C)(C)C(=O)N[C@@H]5C)n(C)c12` [Example 173, (11~{R})-17-[5-[(3~{S},4~{R})-3-amino-4-methoxy-piperidine-1-carbonyl]-7-methoxy-1-methyl-benzimidazol-2-yl]-8,8,11-trimethyl-1,10-diazatricyclo[10.5.2.0^{15,18}]nonadeca-12(19),13,15(18),16-tetraen-9-one], for which the IC50 was 109 nM.

As for `COc1cc(C(=O)N2CC[C@@H](OC)[C@@H](N)C2)cc2nc(-c3cc4ccc5nc4n3CCCCCC(C)(C)C(=O)N[C@@H]5C)n(C)c12` [Example 61, (10~{R})-16-[5-[(3~{S},4~{R})-3-amino-4-methoxy-piperidine-1-carbonyl]-7-methoxy-1-methyl-benzimidazol-2-yl]-7,7,10-trimethyl-1,9,18-triazatricyclo[9.5.2.0^{14,17}]octadeca-11(18),12,14(17),15-tetraen-8-one], the IC50 came to 231 nM.

With `C[C@H]1NC(=O)[C@@H]2C[C@H]2CCCCCn2c(-c3nc4cc(C(=O)N[C@@H]5CCCNC5)c(F)cc4n3C3CC3)cc3ccc1nc32` [Example 568, 1-cyclopropyl-6-fluoro-2-[(2~{R},5~{R},7~{R})-2-methyl-4-oxo-3,13,19-triazatetracyclo[11.5.2.0^ {5,7}.0^{16,20}]icosa-1(19), 14,16(20),17-tetraen-14-yl]- ~{N}-[(3~{R})-3-piperidyl]benzimidazole-5-carboxamide11,11-difluoro-2-methyl-4-oxo-3,13,19-], the IC50 worked out at 33 nM.

As to `C[C@H]1NC(=O)[C@@](F)(c2cccc(Cl)n2)CCCCCCn2c(-c3nc4cc(C(=O)N5C[C@H](N)[C@@H]6CC[C@H]5C6)cc(F)c4n3C3CC3)cc3ccc1nc32` [Example 480, (8~{S},11~{R})-17-[5-[(1~{S},4~{R},5~{R})-4-amino-2-azabicyclo[3.2.1]octane-2-carbonyl]-1-cyclopropyl-7-fluoro-benzimidazol-2-yl]-8-(6-chloro-2-pyridyl)-8-fluoro-11-methyl-1,10,19-triazatricyclo[10.5.2.0^{15,18}]nonadeca-12(19),13,15(18),16-tetraen-9-one], the IC50 amounted to 134 nM.

`COc1cc(C(=O)N2C[C@H](N)[C@@H]3CC[C@H]2C3)cc2nc(-c3cc4ccc5nc4n3CCCCCC[C@](F)(c3ccccn3)C(=O)N[C@@H]5C)n(C3CC3)c12` (single isomer, unassigned) [Example 945, (8˜{S},11˜{R})-17-[5-[(1˜{S},4˜{R},5˜{R})-4-amino-2-azabicyclo[3.2.1]octane-2-carbonyl]-1-cyclopropyl-7-methoxy-benzimidazol-2-yl]-8-fluoro-11-methyl-8-(2-pyridyl)-1,10,19-triazatricyclo[10.5.2.0^{15,18}]nonadeca-12(19),13,15(18),16-tetraen-9-one]: the IC50 is 34 nM.

Consider `C[C@H]1NC(=O)[C@@H]2C[C@H]2CCCCCn2c(-c3nc4cc(C(=O)N5C[C@H](N)[C@@H]6CC[C@H]5C6)cc(F)c4n3C3CC3)cc3ccc1nc32` [Example 882, (2~{R},5~{R},7~{R})-14-[5-[(1~{S),4~{R},5~{R})-4-amino-2-azabicyclo [3.2.1]octane-2-carbonyl]-1-cyclopropyl-7-fluoro-benzimidazol-2-yl]-2-methyl-3,13,19-triazatetracyclo[11.5.2.0^ {5,7}.0^{16,20}]icosa-1(19),14,16(20),17-tetraen-4-one], for which the IC50 turned out to be 22 nM.

Turning to `COc1cc(C(=O)N[C@H]2CNC[C@@H](C(F)F)C2)cc2nc(-c3cc4ccc5nc4n3CC(F)(F)CCC[C@@H]3C[C@H]3C(=O)N[C@@H]5C)n(C)c12` [Example 633, 2-[(2~{R},5~{R},7~{R})-11,11-difluoro-2-methyl-4-oxo-3,13,19-triazatetracyclo[11.5.2.0^ {5,7}.0^{16,20}]icosa-1(19),14,16(20), 17-tetraen-14-yl]- ~{N}-[(3~{R},5~{S})-5-(difluoromethyl)-3-piperidyl]-7-methoxy-1-methyl-benzimidazole-5-carboxamide], the IC50 was determined as 57 nM.

On to `COc1cc(C(=O)N2[C@H]3CC[C@@H]2[C@H](N)C3)cc2nc(-c3cc4ccc5nc4n3C[C@H]3C[C@H]3COCCC(=O)N[C@@H]5C)n(C)c12` [Example 336, (3~{S),5~{R},12~{R})-18-[5-[(1~{R},2~{R},4~{S})-2-amino-7-azabicyclo[2.2.1]heptane-7-carbonyl]-7-methoxy-1-methyl-benzimidazol-2-yl]-12-methyl-7-oxa-1,11,20-triazatetracyclo[11.5.2.0^{3,5}.0^{16,19}] icosa-13(20),14,16(19),17-tetraen-10-one], for which the IC50 was found to be 34 nM.

In the case of `C[C@H]1NC(=O)c2ccc(C#Cc3ccccc3)nc2CCCCCn2c(-c3nc4cc(C(=O)N5C[C@H](N)[C@@H]6CC[C@H]5C6)cc(F)c4n3C3CC3)cc3ccc1nc32` [Example 820, (2˜{R})-17-[5-[(1˜{S},4˜{R},5˜{R})-4-amino-2-azabicyclo[3.2.1]octane-2-carbonyl]-1-cyclopropyl-7-fluoro-benzimidazol-2-yl]-2-methyl-8-(2-phenylethynyl)-3,9,16,22-tetrazatetracyclo[14.5.2.0^{5,10}.0^{19,23}]tricosa-1(21),5(10),6,8,17,19,22-heptaen-4-one], the IC50 came out at 168 nM.

Regarding `C[C@H]1NC(=O)[C@@H]2C[C@H]2CCCCCn2c(-c3nc4cc(C(=O)N[C@H]5CNCC[C@@H]5F)cnc4n3C)cc3ccc1nc32` [Example 188, ˜{N}-[(3˜{S},4˜{S})-4-fluoro-3-piperidyl]-3-methyl-2-[(2˜{R},5˜{R},7˜{R})-2-methyl-4-oxo-3,13,19-triazatetracyclo[11.5.2.0^{5,7}.0^{16,20}]icosa-1(19),14,16(20),17-tetraen-14-yl]imidazo[4,5-b]pyridine-6-carboxamide], the IC50 came to 49 nM.

For the molecule `C[C@H]1NC(=O)C(C)(C)CCCCCCn2c(-c3nc4cc(C(=O)N[C@H]5CNCC[C@@H]5F)c(F)c(F)c4n3C)cc3ccc1nc32` [Example 538, 6,7-difluoro-~{N}-[(3~ {S},4~{S})-4-fluoro-3-piperidyl]-1-methyl-2-[(11~{R})-8,8,11-trimethyl-9-oxo-1,10,19-triazatricyclo[10.5.2.0^ {15,18}]nonadeca-12(19),13,15(18),16-tetraen-17-yl]benzimidazole-5-carboxamide], the IC50 was 90 nM.

In the case of `COc1cc2c(cc1C(=O)N[C@H]1CNCC[C@@H]1F)nc(-c1cc3ccc4nc3n1CCCCCCC(C)(C)C(=O)N[C@@H]4C)n2C` [Example 592, ~{N}-[(3~{S},4~{S})-4-fluoro-3-piperidyl]-6-methoxy-1-methyl-2-[(11~{R})-8,8,11-trimethyl-9-oxo-1,10,19-triazatricyclo[10.5.2.0^ {15,18}]nonadeca-12,14,16,18-tetraen-17-yl]benzimidazole-5-carboxamide], the IC50 was determined as 175 nM.

Consider `C[C@H]1NC(=O)c2c(ncc3ccccc23)CCCCCn2c(-c3nc4cc(C(=O)N5C[C@H](N)[C@@H]6CC[C@H]5C6)cc(F)c4n3C3CC3)cc3ccc1nc32` [Example 457, (2~{R})-21-[5-[(1~{S),4~{R},5~{R})-4-amino-2-azabicyclo[3.2.1]octane-2-carbonyl]-1-cyclopropyl-7-fluoro-benzimidazol-2-yl]-2-methyl-3,13,20,26-tetrazapentacyclo[18.5.2.0^{5,14}.0^ {6,11}.0^{23,27}]heptacosa-1(26),5(14),6(11),7,9,12,21,23(27),24-nonaen-4-one], for which the IC50 stood at 38 nM.

For the molecule `COc1cc(C(=O)N2[C@H]3CC[C@@H]2[C@H](N)C3)cc2nc(-c3cc4ccc5nc4n3CCCCCCC(=O)N3CCC[C@H]53)n(C)c12` [Example 131, (2~{R})-15-[5-[(1~{R},2~{R},4~{S})-2-amino-7-azabicyclo[2.2.1]heptane-7-carbonyl]-7-methoxy-1-methyl-benzimidazol-2-yl]-6,14,20-triazatetracyclo[12.5.2.0^{2,6}.0^{17,21}] henicosa-1(20),15,17(21),18-tetraen-7-one], the IC50 was 15 nM.
